Measured values reported in ChEMBL document CHEMBL4229379, “Synthesis and structure-activity relationship of novel bisindole amidines active against MDR Gram-positive and Gram-negative bacteria” (Eur J Med Chem, 2018).
Converted amounts (≈) assume the structure as drawn.

Assays:
[1] = system: Acinetobacter calcoaceticus; assay: Antibacterial activity against Acinetobacter calcoaceticus ATCC 19606 after 18 hrs by CLSI broth microdilution method; assay type: functional; settings: ATCC 19606, 18 h
[2] = system: Acinetobacter calcoaceticus; assay: Antibacterial activity against new delhi metallo-beta-lactamase-1 harboring Acinetobacter calcoaceticus 13-1 after 18 hrs by CLSI broth microdilution method; assay type: functional; settings: 13-1, 18 h
Staphylococcus aureus [3] = assay: Antibacterial activity against methicillin-resistant Staphylococcus aureus ATCC 33591 infected in ICR mouse assessed as mouse survival at 4 mg/kg, iv administered at 1 and 5 hrs post infection and measured on day 7 day post last dose (reference value: 0%); assay type: functional; settings: ATCC 33591, iv
[4] = system: Staphylococcus epidermidis; assay: Antibacterial activity against methicillin-resistant Staphylococcus epidermidis 12-8 after 18 hrs by CLSI broth microdilution method; assay type: functional; settings: 12-8, 18 h
Enterococcus faecium [5] = assay: Antibacterial activity against vancomycin-resistant Enterococcus faecium ATCC 700221 after 18 hrs by CLSI broth microdilution method; assay type: functional; settings: ATCC 700221, 18 h
Enterobacter cloacae [6] = assay: Antibacterial activity against new delhi metallo-beta-lactamase-1 harboring Enterobacter cloacae 13-1 after 18 hrs by CLSI broth microdilution method; assay type: functional; settings: 13-1, 18 h
Enterobacter cloacae [7] = assay: Antibacterial activity against new delhi metallo-beta-lactamase-1 harboring Enterobacter cloacae CDC1000654 after 18 hrs by CLSI broth microdilution method; assay type: functional; settings: CDC1000654, 18 h
Pseudomonas aeruginosa [8] = assay: Antibacterial activity against Pseudomonas aeruginosa PAO1 after 18 hrs by CLSI broth microdilution method; assay type: functional; settings: PAO1, 18 h
Escherichia coli [9] = assay: Antibacterial activity against extended-spectrum beta-lactamase deficient Escherichia coli ATCC 25922 after 18 hrs by CLSI broth microdilution method; assay type: functional; settings: ATCC 25922, 18 h
Staphylococcus aureus [10] = assay: Antibacterial activity against methicillin-sensitive Staphylococcus aureus 15 after 18 hrs by CLSI broth microdilution method; assay type: functional; settings: Staphylococcus aureus, 15, 18 h
Klebsiella pneumoniae [11] = assay: Antibacterial activity against carbapenem-resistant Klebsiella pneumoniae 12-12 after 18 hrs by CLSI broth microdilution method; assay type: functional; settings: 12-12, 18 h
Klebsiella pneumoniae [12] = assay: Antibacterial activity against new delhi metallo-beta-lactamase-1 harboring Klebsiella pneumoniae ATCC BAA-2146 after 18 hrs by CLSI broth microdilution method; assay type: functional; settings: ATCC BAA-2146, 18 h
Escherichia coli [13] = assay: Antibacterial activity against extended-spectrum beta-lactamase harboring Escherichia coli 12-15 after 18 hrs by CLSI broth microdilution method; assay type: functional; settings: 12-15, 18 h
Klebsiella pneumoniae [14] = assay: Antibacterial activity against extended-spectrum beta-lactamase deficient Klebsiella pneumoniae 12-4 after 18 hrs by CLSI broth microdilution method; assay type: functional; settings: 12-4, 18 h
[15] = system: Staphylococcus epidermidis; assay: Antibacterial activity against methicillin-sensitive Staphylococcus epidermidis ATCC 12228 after 18 hrs by CLSI broth microdilution method; assay type: functional; settings: ATCC 12228, 18 h
Staphylococcus aureus [16] = assay: Antibacterial activity against methicillin-resistant Staphylococcus aureus ATCC 33591 infected in ICR mouse assessed as mouse survival administered intravenously at 1 and 5 hrs post infection and measured on day 7 day post last dose (reference value: 0%); assay type: functional; settings: ATCC 33591, iv
Enterococcus faecium [17] = assay: Antibacterial activity against vancomycin-resistant Enterococcus faecium 12-1 after 18 hrs by CLSI broth microdilution method; assay type: functional; settings: 12-1, 18 h
Klebsiella pneumoniae [18] = assay: Antibacterial activity against extended-spectrum beta-lactamase harboring Klebsiella pneumoniae ATCC 700603 after 18 hrs by CLSI broth microdilution method; assay type: functional; settings: Klebsiella pneumoniae, 700603, 18 h
Escherichia coli [19] = assay: Antibacterial activity against extended-spectrum beta-lactamase deficient Escherichia coli 1515 after 18 hrs by CLSI broth microdilution method; assay type: functional; settings: Escherichia coli, 1515, 18 h
Staphylococcus aureus [20] = assay: Antibacterial activity against methicillin-resistant Staphylococcus aureus ATCC 33591 after 18 hrs by CLSI broth microdilution method; assay type: functional; settings: ATCC 33591, 18 h
Staphylococcus aureus [21] = assay: Antibacterial activity against methicillin-sensitive Staphylococcus aureus ATCC 29213 after 18 hrs by CLSI broth microdilution method; assay type: functional; settings: ATCC 29213, 18 h
Klebsiella aerogenes [22] = assay: Antibacterial activity against Enterobacter aerogenes ATCC 13048 after 18 hrs by CLSI broth microdilution method; assay type: functional; settings: ATCC 13048, 18 h
Staphylococcus aureus [23] = assay: Antibacterial activity against methicillin-sensitive Staphylococcus aureus 12-28 after 18 hrs by CLSI broth microdilution method; assay type: functional; settings: 12-28, 18 h
Enterococcus faecalis [24] = assay: Antibacterial activity against vancomycin-sensitive Enterococcus faecalis 12-5 after 18 hrs by CLSI broth microdilution method; assay type: functional; settings: 12-5, 18 h
Klebsiella aerogenes [25] = assay: Antibacterial activity against carbapenem-resistant Enterobacter aerogenes 11-4 after 18 hrs by CLSI broth microdilution method; assay type: functional; settings: 11-4, 18 h
Escherichia coli [26] = assay: Antibacterial activity against extended-spectrum beta-lactamase harboring Escherichia coli CDC1001728 after 18 hrs by CLSI broth microdilution method; assay type: functional; settings: CDC1001728, 18 h
Klebsiella pneumoniae [27] = assay: Antibacterial activity against extended-spectrum beta-lactamase harboring Klebsiella pneumoniae 12-8 after 18 hrs by CLSI broth microdilution method; assay type: functional; settings: 12-8, 18 h
Serratia marcescens = assay: Antibacterial activity against Serratia marcescens ATCC 21074 after 18 hrs by CLSI broth microdilution method; assay type: functional; settings: ATCC 21074, 18 h
Providencia rettgeri = assay: Antibacterial activity against Providencia rettgeri ATCC 31052 after 18 hrs by CLSI broth microdilution method; assay type: functional; settings: ATCC 31052, 18 h
Enterobacter cloacae [28] = assay: Antibacterial activity against Enterobacter cloacae ATCC 43560 after 18 hrs by CLSI broth microdilution method; assay type: functional; settings: ATCC 43560, 18 h
Staphylococcus aureus [29] = assay: Antibacterial activity against methicillin-resistant Staphylococcus aureus ATCC 33591 infected in ICR mouse assessed as mouse survival at 2 mg/kg, iv administered at 1 and 5 hrs post infection and measured on day 7 day post last dose (reference value: 0%); assay type: functional; settings: ATCC 33591, iv
Pseudomonas aeruginosa [30] = assay: Antibacterial activity against Pseudomonas aeruginosa 12-16 after 18 hrs by CLSI broth microdilution method; assay type: functional; settings: 12-16, 18 h
Klebsiella pneumoniae [31] = assay: Antibacterial activity against extended-spectrum beta-lactamase deficient Klebsiella pneumoniae 7 after 18 hrs by CLSI broth microdilution method; assay type: functional; settings: Klebsiella pneumoniae, 7, 18 h
Staphylococcus aureus [32] = assay: Antibacterial activity against methicillin-resistant Staphylococcus aureus 12-33 after 18 hrs by CLSI broth microdilution method; assay type: functional; settings: 12-33, 18 h
Escherichia coli [33] = assay: Antibacterial activity against extended-spectrum beta-lactamase harboring Escherichia coli 13-1 after 18 hrs by CLSI broth microdilution method; assay type: functional; settings: 13-1, 18 h
[34] = Cytotoxicity against HEK293T cells assessed as reduction in cell viability after 48 hrs by MTS assay; assay type: cell-based, HEK-293T; settings: human
Klebsiella pneumoniae [35] = assay: Antibacterial activity against carbapenem-resistant Klebsiella pneumoniae 12-11 after 18 hrs by CLSI broth microdilution method; assay type: functional; settings: 12-11, 18 h
Enterococcus faecalis [36] = assay: Antibacterial activity against vancomycin-resistant Enterococcus faecalis ATCC 51299 after 18 hrs by CLSI broth microdilution method; assay type: functional; settings: ATCC 51299, 18 h
Klebsiella pneumoniae [37] = assay: Antibacterial activity against new delhi metallo-beta-lactamase-1 harboring Klebsiella pneumoniae 13-1 after 18 hrs by CLSI broth microdilution method; assay type: functional; settings: 13-1, 18 h

Question: Which MIC [1] does the source give for `CN(C)C(=N)c1ccc2cc(-c3ccc(-c4cc5ccc(C(=N)N(C)C)cc5[nH]4)cc3)[nH]c2c1` here?
Answer: Its MIC is 8 µg/mL (≈ 17.8 µM).

Question: What about the MIC [2] of the same compound?
Answer: Its MIC is 4 µg/mL (≈ 8.92 µM).

Question: And the survival at 4 mg/kg (Staphylococcus aureus [3])?
Answer: Its survival at 4 mg/kg is 90%.

Question: And the MIC [4]?
Answer: Its MIC is 0.25 µg/mL (≈ 0.557 µM).

Question: What about the MIC (Enterococcus faecium [5]) of the same compound?
Answer: Its MIC is 1 µg/mL (≈ 2.23 µM).

Question: And the MIC (Enterobacter cloacae [6])?
Answer: The MIC was 4 µg/mL (≈ 8.92 µM).

Question: What about the MIC (Enterobacter cloacae [7]) of the same compound?
Answer: The MIC was 4 µg/mL (≈ 8.92 µM).

Question: What about the MIC (Pseudomonas aeruginosa [8]) of the same compound?
Answer: The MIC was 64 µg/mL (≈ 143 µM).

Question: What about the MIC (Escherichia coli [9]) of the same compound?
Answer: The MIC was 1 µg/mL (≈ 2.23 µM).

Question: What about the MIC (Staphylococcus aureus [10]) of the same compound?
Answer: Its MIC is 0.25 µg/mL (≈ 0.557 µM).

Question: What about the MIC (Klebsiella pneumoniae [11]) of the same compound?
Answer: Its MIC is 16 µg/mL (≈ 35.7 µM).

Question: What about the MIC (Klebsiella pneumoniae [12]) of the same compound?
Answer: Its MIC is 2 µg/mL (≈ 4.46 µM).

Question: What about the MIC (Escherichia coli [13]) of the same compound?
Answer: The MIC was 2 µg/mL (≈ 4.46 µM).

Question: And the MIC (Klebsiella pneumoniae [14])?
Answer: Its MIC is 4 µg/mL (≈ 8.92 µM).

Question: What about the MIC [15] of the same compound?
Answer: Its MIC is 0.125 µg/mL (≈ 0.279 µM).

Question: And the ED50 (Staphylococcus aureus [16])?
Answer: Its ED50 is 2.62 mg/kg.

Question: And the ED95 (Staphylococcus aureus [16])?
Answer: The ED95 was 4.62 mg/kg.

Question: And the MIC (Enterococcus faecium [17])?
Answer: The MIC was 0.5 µg/mL (≈ 1.11 µM).

Question: And the MIC (Klebsiella pneumoniae [18])?
Answer: Its MIC is 4 µg/mL (≈ 8.92 µM).

Question: And the MIC (Escherichia coli [19])?
Answer: The MIC was 1 µg/mL (≈ 2.23 µM).

Question: And the MIC (Staphylococcus aureus [20])?
Answer: The MIC was 0.25 µg/mL (≈ 0.557 µM).

Question: What about the MIC (Staphylococcus aureus [21]) of the same compound?
Answer: Its MIC is 0.25 µg/mL (≈ 0.557 µM).

Question: What about the MIC (Klebsiella aerogenes [22]) of the same compound?
Answer: Its MIC is 2 µg/mL (≈ 4.46 µM).

Question: What about the MIC (Staphylococcus aureus [23]) of the same compound?
Answer: Its MIC is 0.25 µg/mL (≈ 0.557 µM).

Question: And the MIC (Enterococcus faecalis [24])?
Answer: Its MIC is 2 µg/mL (≈ 4.46 µM).

Question: And the MIC (Klebsiella aerogenes [25])?
Answer: The MIC was 8 µg/mL (≈ 17.8 µM).

Question: And the MIC (Escherichia coli [26])?
Answer: Its MIC is 2 µg/mL (≈ 4.46 µM).

Question: What about the MIC (Klebsiella pneumoniae [27]) of the same compound?
Answer: The MIC was 4 µg/mL (≈ 8.92 µM).

Question: What about the MIC (Serratia marcescens) of the same compound?
Answer: The MIC was 16 µg/mL (≈ 35.7 µM).

Question: And the MIC (Providencia rettgeri)?
Answer: The MIC was 2 µg/mL (≈ 4.46 µM).

Question: What about the MIC (Enterobacter cloacae [28]) of the same compound?
Answer: Its MIC is 1 µg/mL (≈ 2.23 µM).

Question: What about the survival at 2 mg/kg (Staphylococcus aureus [29]) of the same compound?
Answer: The survival at 2 mg/kg was 20%.

Question: And the MIC (Pseudomonas aeruginosa [30])?
Answer: The MIC was 64 µg/mL (≈ 143 µM).

Question: And the MIC (Klebsiella pneumoniae [31])?
Answer: The MIC was 2 µg/mL (≈ 4.46 µM).

Question: What about the MIC (Staphylococcus aureus [32]) of the same compound?
Answer: Its MIC is 0.25 µg/mL (≈ 0.557 µM).

Question: What about the MIC (Escherichia coli [33]) of the same compound?
Answer: Its MIC is 2 µg/mL (≈ 4.46 µM).

Question: What about the CC50 at 48 h [34] of the same compound?
Answer: The CC50 at 48 h was 4.13 µg/mL (≈ 9.21 µM).

Question: And the MIC (Klebsiella pneumoniae [35])?
Answer: Its MIC is 8 µg/mL (≈ 17.8 µM).

Question: And the MIC (Enterococcus faecalis [36])?
Answer: Its MIC is 1 µg/mL (≈ 2.23 µM).

Question: And the MIC (Klebsiella pneumoniae [37])?
Answer: The MIC was 4 µg/mL (≈ 8.92 µM).
